Where two headings read alike, the source gives them in different places.
Molecular target: T1, Human GLP-1 receptor (Homo sapiens, UniProt P43220)
T1 construct: expressed in transfected cells
Test: Measurement of GLP-1 receptor agonist activity (cAMP assay)
Type: cell-based
In short: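 Agonism measured as cAMP accumulation by time-resolved FRET immunoassay in CHO-K1 cells stably expressing human GLP-1 receptor. Cells treated for 1 h at 37 °C with compound and forskolin (400 μM stock), in buffer containing the PDE inhibitors IBMX (0.1 mM) and RO20-1724 (0.2 mM).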

[1] = CHO-K1, hGLP-1R/CHO-K1 cells, cAMP, 100% = human GLP-1 (7-36) at 2 nM, 0% = DMSO only, read-out: Emax(%)
[2] = hGLP-1R/CHO-K1 cells, cAMP increase, 37° C. 1 hour
[3] = CHO-K1, maximum effect, cAMP increase in GLP-1 R/CHO-K1 cells, 2 nM human GLP-1 (7-36) = 100%, DMSO only = 0%, read-out: Emax
[4] = cAMP increase in GLP-1 R/CHO-K1 cells, 2 nM human GLP-1 (7-36) = 100%, DMSO only = 0%

T1 sequence (P43220 24-463): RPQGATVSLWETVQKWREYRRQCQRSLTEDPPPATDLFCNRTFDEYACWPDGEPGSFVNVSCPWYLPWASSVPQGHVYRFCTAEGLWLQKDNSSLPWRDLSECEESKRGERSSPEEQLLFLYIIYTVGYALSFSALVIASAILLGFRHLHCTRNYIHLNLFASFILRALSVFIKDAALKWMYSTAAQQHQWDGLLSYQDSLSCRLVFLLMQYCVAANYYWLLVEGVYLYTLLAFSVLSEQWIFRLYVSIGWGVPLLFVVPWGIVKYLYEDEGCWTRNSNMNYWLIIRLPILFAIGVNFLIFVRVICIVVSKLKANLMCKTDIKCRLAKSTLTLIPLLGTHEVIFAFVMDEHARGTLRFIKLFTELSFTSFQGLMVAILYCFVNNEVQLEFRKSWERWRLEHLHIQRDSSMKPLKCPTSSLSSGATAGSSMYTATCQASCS

| Emax [1] [%] | EC50 [2] [nM] | Emax [3] [%] | EC50 [4] [nM] | SMILES |
| --- | --- | --- | --- | --- |
| 128 | 0.86 | – | – | C[C@H]1c2cc(OCc3ccc(OC(F)F)cc3F)c(C(F)(F)F)cc2CCN1Cc1nc2ccc(C(=O)O)c(F)c2n1C[C@@H]1CCO1 [Compound I-199] |
| 102 | 0.577 | – | – | C[C@H]1c2cc(OCc3cc(F)c(Cl)cc3F)c(C(F)(F)F)cc2CCN1Cc1nc2ccc(C(=O)O)c(F)c2n1C[C@@H]1CCO1 [Compound I-200] |
| 123 | 0.274 | – | – | C[C@H]1c2cc(OCc3ccc(Cl)cc3Cl)c(C(F)(F)F)cc2CCN1Cc1nc2ccc(C(=O)O)c(F)c2n1C[C@@H]1CCO1 [Compound I-201] |
| 105 | 1.66 | – | – | COc1ccc(COc2cc3c(cc2C(F)(F)F)CCN(Cc2nc4c(F)cc(C(=O)O)cc4n2C[C@@H]2CCO2)[C@H]3C)cc1 [Compound I-202] |
| 104 | 0.31 | – | – | C[C@H]1c2cc(OCc3ccc(Cl)cn3)c(C(F)(F)F)cc2CCN1Cc1nc2c(F)cc(C(=O)O)cc2n1C[C@@H]1CCO1 [Compound I-203] |
| 117 | 0.509 | – | – | Cc1csc(COc2cc3c(cc2C(F)(F)F)CCN(Cc2nc4c(F)cc(C(=O)O)cc4n2C[C@@H]2CCO2)[C@H]3C)n1 [Compound I-204] |
| 109 | 0.447 | – | – | C[C@H]1c2cc(OCc3ccc(Cl)cc3)c(C(F)(F)F)cc2CCN1Cc1nc2c(F)cc(C(=O)O)cc2n1C[C@@H]1CCO1 [Compound I-205] |
| 110 | 0.511 | – | – | Cc1ccc(COc2cc3c(cc2C(F)(F)F)CCN(Cc2nc4c(F)cc(C(=O)O)cc4n2C[C@@H]2CCO2)[C@H]3C)cc1 [Compound I-206] |
| 90.3 | 1.72 | – | – | C[C@H]1c2cc(OCc3ccc(C4CC4)cc3)c(C(F)(F)F)cc2CCN1Cc1nc2c(F)cc(C(=O)O)cc2n1C[C@@H]1CCO1 [Compound I-207] |
| 109 | 0.0824 | – | – | COc1cc(Cl)ccc1COc1cc2c(cc1C(F)(F)F)CCN(Cc1nc3c(F)cc(C(=O)O)cc3n1C[C@@H]1CCO1)[C@H]2C [Compound I-208] |
| 112 | 0.984 | – | – | C[C@H]1c2cc(OCc3ccccc3Cl)c(C(F)(F)F)cc2CCN1Cc1nc2c(F)cc(C(=O)O)cc2n1C[C@@H]1CCO1 [Compound I-209] |
| 113 | 0.434 | – | – | C[C@H]1c2cc(OCc3ccc(F)cc3F)c(C(F)(F)F)cc2CCN1Cc1nc2c(F)cc(C(=O)O)cc2n1C[C@@H]1CCO1 [Compound I-210] |
| 103 | 0.181 | – | – | C[C@H]1c2cc(OCc3ccc(Cl)cc3Cl)c(C(F)(F)F)cc2CCN1Cc1nc2c(F)cc(C(=O)O)cc2n1C[C@@H]1CCO1 [Compound I-211] |
| 104 | 1 | – | – | C[C@H]1c2cc(OCc3ccc(OC(F)F)cc3F)c(C(F)(F)F)cc2CCN1Cc1nc2c(F)cc(C(=O)O)cc2n1C[C@@H]1CCO1 [Compound I-212] |
| 122 | 0.366 | – | – | C[C@H]1c2cc(OCc3cc(F)c(Cl)cc3F)c(C(F)(F)F)cc2CCN1Cc1nc2c(F)cc(C(=O)O)cc2n1C[C@@H]1CCO1 [Compound I-213] |
| 104 | 0.392 | – | – | C[C@H]1c2cc(OCc3ccc(C#N)cc3F)c(C(F)(F)F)cc2CCN1Cc1nc2c(F)cc(C(=O)O)cc2n1C[C@@H]1CCO1 [Compound I-214] |
| 106 | 1.82 | – | – | C[C@H]1c2cc(OCc3ccc(C(F)F)cc3F)c(C(F)(F)F)cc2CCN1Cc1nc2ccc(C(=O)O)cc2n1C[C@@H]1CCO1 [Compound I-215] |
| 103 | 8.62 | – | – | O=C(O)c1ccc2nc(CN3CCc4cc(C(F)(F)F)c(OCc5c(F)cc(C(F)F)cc5F)cc4C3)n(C[C@@H]3CCO3)c2c1 [Compound I-216] |
| 103 | 2.34 | – | – | O=C(O)c1ccc2nc(CN3CCc4cc(C(F)(F)F)c(OCc5c(F)cc(OC(F)F)cc5F)cc4C3)n(C[C@@H]3CCO3)c2c1 [Compound I-217] |

| Emax [1] [%] | EC50 [2] [nM] | Emax [3] [%] | EC50 [4] [nM] | SMILES |
| --- | --- | --- | --- | --- |
| 109 | 0.179 | – | – | C[C@H]1c2nc(OCc3ccc(F)cc3)c(C(F)(F)F)cc2CCN1Cc1nc2ccc(C(=O)O)cc2n1C[C@@H]1CCO1 [Compound I-218] |
| 114 | 1.2 | – | – | C[C@H]1c2cc(OCc3ccc(C#N)cc3F)c(C(F)(F)F)cc2CCN1Cc1nc2ccc(C(=O)O)c(F)c2n1C[C@@H]1CCO1 [Compound I-219] |
| 110 | 0.251 | – | – | C[C@H]1c2nc(OCc3ccc(F)cc3Cl)c(C(F)(F)F)cc2CCN1Cc1nc2ccc(C(=O)O)cc2n1C[C@@H]1CCO1 [Compound I-220] |
| 125 | 6.07 | – | – | C[C@H]1c2cc(OCc3ccc(C#N)cc3F)c(Cl)cc2CCN1Cc1nc2ccc(C(=O)O)cc2n1C[C@@H]1CCO1 [Compound I-221] |
| 108 | – | – | – | O=C(O)c1ccc2nc(CN3CCc4cc(C(F)(F)F)c(OCc5ccc(Cl)cc5F)nc4C3)n(C[C@@H]3CCO3)c2c1F [Compound I-222] |
| 103 | 0.12 | – | – | C[C@H]1c2nc(OCc3ccc(Cl)cc3)c(C(F)(F)F)cc2CCN1Cc1nc2ccc(C(=O)O)c(F)c2n1C[C@@H]1CCO1 [Compound I-223] |
| – | – | 110 | 1.41 | COc1ccc(COc2cc3c(cc2C(F)(F)F)CCN(Cc2nc4c(OC)cc(C(=O)O)cc4n2C[C@@H]2CCO2)[C@H]3C)cc1 [Compound I-224] |
| – | – | 104 | 0.348 | COc1cc(C(=O)O)cc2c1nc(CN1CCc3cc(C(F)(F)F)c(OCc4ccc(Cl)cn4)cc3[C@@H]1C)n2C[C@@H]1CCO1 [Compound I-225] |
| – | – | 112 | 0.628 | COc1cc(C(=O)O)cc2c1nc(CN1CCc3cc(C(F)(F)F)c(OCc4ccc(Cl)cc4)cc3[C@@H]1C)n2C[C@@H]1CCO1 [Compound I-226] |
| – | – | 103 | 0.3 | COc1cc(C(=O)O)cc2c1nc(CN1CCc3cc(C(F)(F)F)c(OCc4ccc(C)cc4)cc3[C@@H]1C)n2C[C@@H]1CCO1 [Compound I-227] |
| – | – | 106 | 2.41 | COc1cc(C(=O)O)cc2c1nc(CN1CCc3cc(C(F)(F)F)c(OCc4ccc(C5CC5)cc4)cc3[C@@H]1C)n2C[C@@H]1CCO1 [Compound I-228] |
| – | – | 105 | 0.0656 | COc1cc(Cl)ccc1COc1cc2c(cc1C(F)(F)F)CCN(Cc1nc3c(OC)cc(C(=O)O)cc3n1C[C@@H]1CCO1)[C@H]2C [Compound I-229] |
| – | – | 109 | 0.693 | COc1cc(C(=O)O)cc2c1nc(CN1CCc3cc(C(F)(F)F)c(OCc4ccccc4Cl)cc3[C@@H]1C)n2C[C@@H]1CCO1 [Compound I-230] |
| – | – | 106 | 0.282 | COc1cc(C(=O)O)cc2c1nc(CN1CCc3cc(C(F)(F)F)c(OCc4ccc(F)cc4F)cc3[C@@H]1C)n2C[C@@H]1CCO1 [Compound I-231] |
| – | – | 117 | 0.223 | COc1cc(C(=O)O)cc2c1nc(CN1CCc3cc(C(F)(F)F)c(OCc4ccc(Cl)cc4Cl)cc3[C@@H]1C)n2C[C@@H]1CCO1 [Compound I-232] |
| – | – | 97.7 | 1.29 | COc1cc(C(=O)O)cc2c1nc(CN1CCc3cc(C(F)(F)F)c(OCc4ccc(OC(F)F)cc4F)cc3[C@@H]1C)n2C[C@@H]1CCO1 [Compound I-233] |
| – | – | 109 | 0.354 | COc1cc(C(=O)O)cc2c1nc(CN1CCc3cc(C(F)(F)F)c(OCc4cc(F)c(Cl)cc4F)cc3[C@@H]1C)n2C[C@@H]1CCO1 [Compound I-234] |
| – | – | 102 | 0.378 | COc1cc(C(=O)O)cc2c1nc(CN1CCc3cc(C(F)(F)F)c(OCc4ccc(C#N)cc4F)cc3[C@@H]1C)n2C[C@@H]1CCO1 [Compound I-235] |
